Results on two molecules are retold here after patent publication US10919943B2, “Mutant proteins enabling agrochemical control of plant gene expression” (The Regents of the University of California, priority 2016, dated 2021).

Marks after values point to notes of the source that are not given here.

In one data set the test system is pMANDI-UAS-GFP-LEAFY. Briefly: Mandipropamid induction of GFP-LEAFY in T1 leaf tissue, GFP fluorescence. The class given is in vivo, Arabidopsis. Particulars: 10 μM mandipropamid, 24 hours; FIG. 15B. An excerpt:
To test the efficacy of our transcriptional circuit in planta, we constructed a 3 component system for inducing genes of interest using the mandipropamid mediated interaction of a BD-PYR1*/AD-HAB1* to drive genes of interest from a GAL4-responsive UAS (FIG. 15A). To do this we constructed a BD-PYR1*^-MANDI fusion protein and NLSSV40-VP64-HAB1*-N7 fusion protein and used these to drive gene expression from a synthetic UAS-minimal-35S promoter. To make the desired vector, the three required components were separately cloned into vectors that provided necessary elements (such as the Gal4 DNA binding domain, or 35S-promoter-nos-terminator cassettes). After this, the three components were combined into a plant binary transformation vector.
To combine all three components into a single vector, a 35S::NLS-VP64-HAB1*-N7-Nos-terminator cassette was PCR amplified from pVP64-HAB1*-N7 and cloned into pBD-PYR1* into its SacI site, upstream of the BD-PYR1* expression cassette, yielding pAD-BD. […]
Having developed a simple induction system, we tested it by examining the expression of the flowering regulator LEAFY. […] 24 hours after transfer, both tissues were examined using a GFP fluorescence dissecting scope and documented under identical camera and microscope settings (FIG. 15B).

Data set [1] can be described thus: Phosphatase activity of recombinant GST-HAB1 proteins (4-methylumbeliferyl phosphate). The class given is biochemical. Particulars: 1 μg protein, percent control (GST-HAB1); FIG. 7. An excerpt: In the presence of ABA, wild type PYR1 binds to HAB1 and docks into its active site, which inhibits its enzymatic activity by blocking access of substrates. To characterize the orthogonal PYR1^! and HAB1^! interaction biochemically, we produced recombinant forms of each protein in E. coli, along with the wild type form, and tested the wild type and orthogonal mutant for their ability to inhibit HAB1 and HAB1^! activities in vitro. We cloned PYR1^! into pET28 to generate 6×-His tagged receptor and cloned HAB1^! into pGEX-4T-1 to create a GST-fusion protein. The previously constructed (S.-Y. Park et al., 2009) wild type 6×-His-PYR1 and GST-HAB1 constructs were used for producing recombinant wild type proteins. The 6×-His-tagged receptors and GST-tagged PP2Cs were expressed and purified as previously described. […] The plates were read using a Victor 2 plate reader (PerkinElmer) (355 nm excitation, 460 nm emission) and assays run in triplicate. The PP2C activity values reported are expressed as percent control values, which were calculated by including the carrier solvent (1% DMSO) and the specific receptor assayed, but no ligand. […]
To characterize HAB1^!-3 and HAB1* in vitro, we cloned them into pGEX-4T-1 to create GST-fusion proteins. […] The PP2C activity values reported are expressed as percent control (GST-HAB1) from triplicate measurements.

In the case of `C#CCOc1ccc(CCNC(=O)C(OCC#C)c2ccc(Cl)cc2)cc1OC` (centres unmarked) [mandipropamid], the GFP-LEAFY induction result in the data set on pMANDI-UAS-GFP-LEAFY is “GFP-LEAFY induction in response to mandipropamid”.

B1: HAB1*: catalytically inactive orthogonal pentuple HAB1 mutant (protein, listed as Arabidopsis thaliana)
chain: MTPAVAMTLSLAANTMCESSPVEITQLKNVTDAADLLSDSENQSFCNGGTECTMEDVSELEEVGEQDLLKTLSDTRSGSSNVFDEDDVLSVVEDNSAVISEGLLVVDAGSELSLSNTAMEIDNGRVLATAIIVGESSIEQVPTAEVLIAGVNQDTNTSEVVIRLPDENSNHLVKGRSVYELDCIPLWGTVSIQGNASEMEAAFAVSPHFLKLPIKMLMGDHEGMSPSLTHLTGHFFGVYDGHGGHKVADYCRDRLHFALAEEIERIKDELCKRNTGEGRQVQWDKVFTSCFLTVDGEIEGKIGRAVVGSSDKVLEAVADETVGSTAVVALVCSSHIVVSNCGDSRAVLFRGKEAMPLSVDHKPDREDEYARIENAGGKVIQWQGARVFGRLAMSRSIGDRYLKPYVIPEPEVTFMPRSREDECLILASDGLWDVMNNQEVCEIARRRILMWHKKNGAPPLAERGKGIDPACQAAADYLSMLALQKGSKDNISIIVIDLKAQAKFKTRT
In the case of B1, the “catalytic activity in vitro” value in data set [1] is recorded as “Neither HAB1^!-3 or HAB1* display detectable catalytic activity”.
